Experimental data from ChEMBL document CHEMBL2417368, “Structure-based discovery of novel amide-containing nicotinamide phosphoribosyltransferase (nampt) inhibitors” (J Med Chem, 2013).

Key:
[1] = molecular target: Nicotinamide phosphoribosyltransferase (Homo sapiens, UniProt P43490)
[2] = Fraction unbound in mouse plasma at 5 uM after 4 hrs by LC-MS/MS analysis; format: ADME, cell-free
A2780 = assay: cells; settings: Homo sapiens, A2780, 72 h
in vitro = settings: dog, MDCK
[3] = Intrinsic clearance in CD-1 mouse hepatocytes at 1 uM after 10 mins by LC-MS/MS analysis; format: ADME, cell-based, Hepatocyte; settings: read-out: CLH
[4] = (§1) Metabolic stability in mouse liver microsomes assessed as compound remaining at 1 uM after 30 mins LC-MS analysis; format: ADME, Microsome; settings: liver microsomes, read-out: Stability
[5] = (§2) Metabolic stability in human liver microsomes assessed as compound remaining at 1 uM after 30 mins LC-MS analysis; format: ADME, Microsome; settings: liver microsomes, read-out: Stability
[6] = Fraction unbound in human plasma at 5 uM after 4 hrs by LC-MS/MS analysis; format: ADME, cell-free
[7] = Intrinsic clearance in human hepatocytes at 1 uM after 10 mins by LC-MS/MS analysis; format: ADME, cell-based, Hepatocyte; settings: read-out: CLH
Liver [8] = assay: as §1; format: ADME, Microsome; settings: microsomes, 0.5 h, 1 µM, BLD = below limit of detection
Liver [9] = assay: as §2; format: ADME, Microsome; settings: microsomes, 0.5 h, 1 µM, BLD = below limit of detection

Chain of Nicotinamide phosphoribosyltransferase (P43490 whole entry): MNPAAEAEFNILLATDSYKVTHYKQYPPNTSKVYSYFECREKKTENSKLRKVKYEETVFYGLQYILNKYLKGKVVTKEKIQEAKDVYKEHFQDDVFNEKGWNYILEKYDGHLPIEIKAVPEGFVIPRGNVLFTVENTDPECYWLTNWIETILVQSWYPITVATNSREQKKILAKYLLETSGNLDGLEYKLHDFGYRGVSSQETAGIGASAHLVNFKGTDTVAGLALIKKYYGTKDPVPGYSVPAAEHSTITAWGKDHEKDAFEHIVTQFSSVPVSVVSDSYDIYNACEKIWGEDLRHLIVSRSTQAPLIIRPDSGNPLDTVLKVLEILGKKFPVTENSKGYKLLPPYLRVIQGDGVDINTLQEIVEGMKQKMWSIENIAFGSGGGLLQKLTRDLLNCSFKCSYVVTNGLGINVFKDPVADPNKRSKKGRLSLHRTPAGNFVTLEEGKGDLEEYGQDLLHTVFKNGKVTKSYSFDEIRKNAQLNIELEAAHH

SMILES	IC50 [1] [µM]	fraction unbound at 4 h, 5 µM [2]	IC50 (A2780) [µM]	Papp A→B at 10 µM (in vitro) [×10⁻⁶ cm/s]	CLint scaled at 1 µM [3] [mL/min/kg]	remaining at 0.5 h, 1 µM [4] [%]	remaining at 0.5 h, 1 µM [5] [%]	fraction unbound at 4 h, 5 µM [6]	CLint scaled at 1 µM [7] [mL/min/kg]	Stability (Liver [8])	Stability (Liver [9])
O=C(NCc1ccc(S(=O)(=O)c2ccc(N3CCOCC3)nc2)cc1)c1cc2cnccc2[nH]1	0.007	0.015	0.001	1	57	72	75	0.011	–	–	–
O=C(/C=C/c1cccnc1)NCCCCC1CCN(C(=O)c2ccccc2)CC1 [DAPORINAD]	–	0.033	–	15	67	7.7	46.7	0.007	15	–	–
O=C(NCc1ccc(S(=O)(=O)c2cc(F)cc(F)c2)cc1)c1cc2ccncc2s1	–	0.011	–	–	78	32	41	0.009	16	–	–
O=C(NCc1ccc(S(=O)(=O)c2ccc(N3CCOCC3)nc2)cc1)c1ccc2nccn2c1	0.006	0.025	0.001	3	43	75	65	0.012	10	–	–
O=C(NCc1ccc(S(=O)(=O)c2cc(F)cc(F)c2)cc1)c1cnc2nccn2c1	–	0.133	0.003	5	74	71	78	0.122	6	–	–
O=C(NCc1ccc(S(=O)(=O)c2cccc(C(F)(F)F)c2)cc1)c1cc2ccncc2o1	0.005	0.011	0.003	13	25	64	48	0.01	10	–	–
O=C(NCc1ccc(S(=O)(=O)c2cc(F)cc(F)c2)cc1)c1cc2cnccc2[nH]1	–	–	–	12	70	63	82	–	7	–	–
O=C(NCc1ccc(S(=O)(=O)c2ccc(N3CCOCC3)nc2)cc1)c1cc2ccncc2o1	0.003	0.017	0.001	15	48	42	51	0.005	14	–	–
O=C(NCc1ccc(S(=O)(=O)c2ccc(C(F)(F)F)cc2)cc1)c1cc2cnccc2[nH]1	0.016	–	0.026	–	–	87	82	–	–	–	–
Cn1c(C(=O)NCc2ccc(S(=O)(=O)c3ccccc3)cc2)cc2ccncc21	0.41	–	> 10	–	–	–	71	–	–	BLD	–
O=C(NCc1ccc(S(=O)(=O)c2ccccc2)cc1)c1cn2ccnc2cn1	0.15	–	> 10	–	–	13	87	–	–	–	–
O=C(NCc1ccc(S(=O)(=O)N2CCCCC2)cc1)c1cc2cnccc2s1	0.15	–	1.6	–	–	–	15	–	–	BLD	–
O=C(NCc1ccc(S(=O)(=O)c2ccccc2)cc1)c1cc2ccncc2s1	0.007	–	0.014	–	–	21	48	–	–	–	–
O=C(NCc1ccc(S(=O)(=O)N2CCCCC2)cc1)c1ccc2ncsc2c1	0.037	–	> 10	–	–	–	24	–	–	BLD	–
O=C(NCc1ccc(S(=O)(=O)c2ccccc2)cc1)c1ccc2ccncc2c1	0.61	–	> 10	–	–	3.3	46	–	–	–	–
O=C(NCc1ccc(S(=O)(=O)c2ccc(N3CCOCC3)nc2)cc1)c1cnc2nccn2c1	0.001	0.12	0.002	0.3	69	86	86	0.028	6	–	–
O=C(NCc1ccc(S(=O)(=O)N2CCCCC2)cc1)c1cc2ccncc2[nH]1	1	–	1.7	–	–	–	50	–	–	BLD	–
O=C(NCc1ccc(S(=O)(=O)c2ccccc2)cc1)c1cc(-c2cccnc2)no1	0.041	–	> 10	–	–	66	69	–	–	–	–

SMILES	IC50 [1] [µM]	fraction unbound at 4 h, 5 µM [2]	IC50 (A2780) [µM]	Papp A→B at 10 µM (in vitro) [×10⁻⁶ cm/s]	CLint scaled at 1 µM [3] [mL/min/kg]	remaining at 0.5 h, 1 µM [4] [%]	remaining at 0.5 h, 1 µM [5] [%]	fraction unbound at 4 h, 5 µM [6]	CLint scaled at 1 µM [7] [mL/min/kg]	Stability (Liver [8])	Stability (Liver [9])
O=C(NCc1ccc(S(=O)(=O)c2ccc(F)cc2)cc1)c1cc2cnccc2[nH]1	0.017	–	0.016	–	–	72	91	–	–	–	–
O=C(NCc1ccc(S(=O)(=O)c2ccccc2)cc1)c1nc2ccncc2s1	0.21	–	> 10	–	–	26	68	–	–	–	–
O=C(NCc1ccc(S(=O)(=O)N2CCCCC2)cc1)c1ccc2nccn2c1	0.028	–	0.006	–	–	0.28	57	–	–	–	–
O=C(NCc1ccc(S(=O)(=O)N2CCCCC2)cc1)c1cc2cccnc2s1	0.008	–	> 10	–	–	–	–	–	–	BLD	BLD
O=C(NCc1ccc(S(=O)(=O)c2ccccc2)cc1)c1ccc2cnccc2c1	> 10	–	> 10	–	–	10	31	–	–	–	–
O=C(NCc1ccc(S(=O)(=O)N2CCCCC2)cc1)c1ccn2cncc2c1	1.7	–	> 10	–	–	1	54	–	–	–	–
O=C(NCc1ccc(S(=O)(=O)c2cccc(C(F)(F)F)c2)cc1)c1cc2cnccc2[nH]1	0.008	0.007	0.003	5	60	49	81	0.006	10	–	–
CC(NC(=O)c1cc2cnccc2[nH]1)c1ccc(S(=O)(=O)N2CCCCC2)cc1 (stereo not given)	> 10	–	> 10	–	–	0.65	34	–	–	–	–
O=C(NCc1ccc(S(=O)(=O)c2ccc(F)c(F)c2)cc1)c1cc2cnccc2[nH]1	0.01	–	0.014	–	–	58	100	–	–	–	–
O=C(NCc1ccc(S(=O)(=O)c2ccccc2)cc1)c1ccc2ncncc2c1	1.9	–	> 10	–	–	3.7	24	–	–	–	–
O=C(NCc1ccc(S(=O)(=O)N2CCCCC2)cc1)c1cnc2nccn2c1	0.003	–	0.13	–	–	0.28	64	–	–	–	–
O=C(NCc1ccc(S(=O)(=O)c2ccccc2)cc1)c1cc(-c2cccnc2)[nH]n1	0.043	–	> 10	–	–	42	67	–	–	–	–
N#CN=C(NCCCCCCOc1ccc(Cl)cc1)Nc1ccncc1 [CHS-828]	–	0.005	–	10	21	63	61	0.005	7	–	–
O=C(NCc1ccc(S(=O)(=O)c2cccc(C(F)(F)F)c2)cc1)c1cc2ccncc2s1	–	0.002	0.001	8	73	35	43	0.004	14	–	–
O=C(NCc1ccc(S(=O)(=O)c2ccc(N3CCOCC3)nc2)cc1)c1cc2ccncc2s1	0.003	–	0.001	–	–	23	23	–	–	–	–
O=C(NCCc1ccc(S(=O)(=O)c2ccccc2)cc1)c1cc2cnccc2[nH]1	0.97	–	9.1	–	–	31	64	–	–	–	–
O=C(NCc1ccc(S(=O)(=O)c2cccc(C(F)(F)F)c2)cc1)c1ccc2nccn2c1	0.008	–	0.002	–	–	17	26	–	–	–	–
O=C(NCc1ccc(S(=O)(=O)N2CCCCC2)cc1)c1cc2ccncc2s1	0.011	–	0.006	–	–	0.2	4.4	–	–	–	–
